Measured values taken from patent US10336701B2, “Pyridin-2-one derivatives of formula (II) useful as EP3 receptor antagonists” (Janssen Pharmaceutica NV, priority 2017, dated 2019).

Legend:
EP3 receptor [1] = target: T1, EP3 receptor (Homo sapiens, UniProt P43115); assay: [3H]-PGE2 binding assay (EP3 competition binding); details: read-out: [3H]-PGE2 Binding Ki
T1 construct: purchased Millipore HTS092M
T1 sequence (P43115 1-390): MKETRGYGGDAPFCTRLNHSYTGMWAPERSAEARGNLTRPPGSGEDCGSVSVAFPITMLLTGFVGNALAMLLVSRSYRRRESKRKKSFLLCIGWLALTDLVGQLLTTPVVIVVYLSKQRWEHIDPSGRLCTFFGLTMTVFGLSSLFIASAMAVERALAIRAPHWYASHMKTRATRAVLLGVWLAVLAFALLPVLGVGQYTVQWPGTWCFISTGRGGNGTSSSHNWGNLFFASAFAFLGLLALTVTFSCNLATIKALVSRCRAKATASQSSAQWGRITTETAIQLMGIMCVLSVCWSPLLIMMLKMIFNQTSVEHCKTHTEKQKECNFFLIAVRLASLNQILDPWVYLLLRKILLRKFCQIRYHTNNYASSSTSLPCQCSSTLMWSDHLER
Procedure, shortened: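 Scintillation-bead competition binding with EP3 membranes (2 μg/well), 2 nM [3H]-PGE2, 0.1% DMSO, in 50 mM Tris, 10 mM MgCl2, 1 mM EDTA, pH 7.4.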

EP3 receptor [2] = target: T1, EP3 receptor; assay: CHO cell cAMP assay (forskolin and sulprostone stimulated, HTRF); assay type: cell-based; details: CHO cells; sulprostone 700 nM (EC80) and FSK 2 μM (EC70), 37° C. for 30 minutes; read-out: CHO_cAMP IC50

SMILES	Ki (EP3 receptor [1])	IC50 (EP3 receptor [2])
CC(C)C(CC(=O)NS(C)(=O)=O)c1ccc(-c2ccc3ccccc3c2)[nH]c1=O (centres unmarked) [compound 250, 4-methyl-N-(methylsulfonyl)-3-(6-(naphthalen-2-yl)-2-oxo-1,2-dihydropyridin-3-yl)pentanamide]	69 nM	931 nM
CC(C)C(CC(=O)Nc1ncc[nH]1)c1ccc(-c2ccc3cccc(F)c3c2)[nH]c1=O (centres unmarked) [compound 261, 3-(6-(8-fluoronaphthalen-2-yl)-2-oxo-1,2-dihydropyridin-3-yl)-N-(1H-imidazol-2-yl)-4-methylpentanamide]	20 nM	24 nM
COc1ccc2cc(-c3ccc(C(C(=O)NCCN(C)C)C(C)C)c(=O)[nH]3)ccc2c1 (centres unmarked) [compound 241]	637 nM	9630 nM
O=C1NC(=O)/C(=C/C(c2ccc(-c3ccc4cccc(F)c4c3)[nH]c2=O)C2CC2)O1 (centres unmarked) [compound 103, (Z)-5-(2-cyclopropyl-2-(6-(8-fluoronaphthalen-2-yl)-2-oxo-1,2-dihydropyridin-3-yl)ethylidene)oxazolidine-2,4-dione]	22 nM	33 nM
CC(C)/C(=C1/OC(=O)NC1=O)c1ccc(-c2ccc3cccc(F)c3c2)[nH]c1=O [Compound #303, (Z)-5-(1-(6-(8-fluoronaphthalen-2-yl)-2-oxo-1,2-dihydropyridin-3-yl)-2-methylpropylidene)oxazolidine-2,4-dione]	14 nM	1280 nM
CCn1ncc2c(F)cc(-c3ccc(C4CCCN(S(=O)(=O)C(C)C)C4)c(=O)[nH]3)cc21 (centres unmarked) [compound 211, 6-(1-ethyl-4-fluoro-1H-indazol-6-yl)-3-(1-(isopropylsulfonyl)piperidin-3-yl)pyridin-2(1H)-one]	5 nM	37 nM
CCn1ncc2c(F)cc(-c3ccc(C(CC)(CC)c4nnn[nH]4)c(=O)[nH]3)cc21 [Compound #3, 3-(3-(1H-tetrazol-5-yl)pentan-3-yl)-6-(1-ethyl-4-fluoro-1H-indazol-6-yl)pyridin-2(1H)-one]	17 nM	349 nM
O=C1NC(=O)/C(=C/C(c2ccc(-c3ccc4cccc(F)c4c3)[nH]c2=O)C2CCCC2)O1 (centres unmarked) [compound 92, (Z)-5-(2-cyclopentyl-2-(6-(8-fluoronaphthalen-2-yl)-2-oxo-1,2-dihydropyridin-3-yl)ethylidene)oxazolidine-2,4-dione]	9 nM	7 nM
CC(C)C(C(=O)NCCN(C)C)c1ccc(-c2ccc3cc(F)ccc3c2)[nH]c1=O (centres unmarked) [compound 242, N-(2-(dimethylamino)ethyl)-2-(6-(6-fluoronaphthalen-2-yl)-2-oxo-1,2-dihydropyridin-3-yl)-3-methylbutanamide]	398 nM	3960 nM
O=C1NC(=O)C(Cc2ccc(-c3ccc4cccc(F)c4c3)[nH]c2=O)O1 (centres unmarked) [compound 252, 5-((6-(8-fluoronaphthalen-2-yl)-2-oxo-1,2-dihydropyridin-3-yl)methyl)oxazolidine-2,4-dione]	180 nM	499 nM
CO/N=C1\NCC(c2cc(C)c(-c3ccc4cccc(F)c4c3)[nH]c2=O)(C(C)C)N1 (centres unmarked) [compound 293, (E)-6-(8-fluoronaphthalen-2-yl)-3-(4-isopropyl-2-(methoxyimino)imidazolidin-4-yl)-5-methylpyridin-2(1H)-one]	14 nM	207 nM
NC(=O)C1(c2ccc(-c3ccc4ccccc4c3)[nH]c2=O)CCCC1 [compound 219, 1-(6-(naphthalen-2-yl)-2-oxo-2,3-dihydropyridin-3-yl)cyclopentanecarboxamide]	108 nM	4070 nM
Cc1cc(C(c2ncc[nH]2)C(C)C)c(=O)[nH]c1-c1ccc2cccc(F)c2c1 (centres unmarked) [compound 82, 3-(1-(1H-imidazol-2-yl)-2-methylpropyl)-6-(8-fluoronaphthalen-2-yl)-5-methylpyridin-2(1H)-one]	23 nM	137 nM
CCn1ncc2c(F)cc(-c3ccc(C4CCC5(CCCNC5=O)CC4)c(=O)[nH]3)cc21 (centres unmarked) [compound 196, 9-(6-(1-ethyl-4-fluoro-1H-indazol-6-yl)-2-oxo-1,2-dihydropyridin-3-yl)-2-azaspiro[5.5]undecan-1-one]	8 nM	87 nM
CC(C)C(CC1OC(=O)NC1=O)c1ccc(-c2ccc3cccc(F)c3c2)[nH]c1=O (centres unmarked) [compound 77]	16 nM	60 nM
CC(C)C(Cc1ccc(-c2ccc3cccc(F)c3c2)[nH]c1=O)C(N)=O (centres unmarked) [compound 253, 2-((6-(8-fluoronaphthalen-2-yl)-2-oxo-1,2-dihydropyridin-3-yl)methyl)-3-methylbutanamide]	12 nM	59 nM
CC(C)C(C(=O)NS(=O)(=O)c1cc(Cl)c(Cl)s1)c1ccc(-c2ccc3cccc(F)c3c2)[nH]c1=O (centres unmarked) [compound 175, N-(4,5-dichlorothiophen-2-ylsulfonyl)-2-(6-(8-fluoronaphthalen-2-yl)-2-oxo-1,2-dihydropyridin-3-yl)-3-methylbutanamide]	110 nM	171 nM
CC(C)C(CC(=O)NCCN(C)C)c1ccc(-c2ccc3cccc(F)c3c2)[nH]c1=O (centres unmarked) [compound 259, N-(2-(dimethylamino)ethyl)-3-(6-(8-fluoronaphthalen-2-yl)-2-oxo-1,2-dihydropyridin-3-yl)-4-methylpentanamide]	28 nM	242 nM
CCn1ncc2c(F)cc(-c3ccc(C4CCN(S(=O)(=O)C(C)C)CC4)c(=O)[nH]3)cc21 [compound 198, 6-(1-ethyl-4-fluoro-1H-indazol-6-yl)-3-(1-(isopropylsulfonyl)piperidin-4-yl)pyridin-2(1H)-one]	19 nM	530 nM
O=C1NC(=O)[C@]2(CCC[C@H](c3ccc(-c4ccc5ccccc5c4)[nH]c3=O)C2)N1 (racemic) [compound 191, 7-(6-(naphthalen-2-yl)-2-oxo-1,2-dihydropyridin-3-yl)-1,3-diazaspiro[4.5]decane-2,4-dione]	5 nM	20 nM
CC(C)C(C(=O)NCCN(C)C)c1ccc(-c2ccc3ncsc3c2)[nH]c1=O (centres unmarked) [compound 246, 2-(6-(benzo[d]thiazol-6-yl)-2-oxo-1,2-dihydropyridin-3-yl)-N-(2-(dimethylamino)ethyl)-3-methylbutanamide]	> 10000 nM	17000 nM
CC1(c2ccc(-c3ccc4ccccc4c3)[nH]c2=O)CNS(=O)(=O)N1 (centres unmarked) [compound 282, 3-(3-methyl-1,1-dioxido-1,2,5-thiadiazolidin-3-yl)-6-(naphthalen-2-yl)pyridin-2(1H)-one]	740 nM	900 nM
CCn1ncc2c(Cl)cc(-c3ccc(C(/C=C4\OC(=O)NC4=O)C(C)C)c(=O)[nH]3)cc21 (centres unmarked) [compound 116, (Z)-5-(2-(6-(4-chloro-1-ethyl-1H-indazol-6-yl)-2-oxo-1,2-dihydropyridin-3-yl)-3-methylbutylidene)oxazolidine-2,4-dione]	8 nM	76 nM
CCn1ncc2c(F)cc(-c3ccc(C(C(C)C)N4CCS(=O)(=O)CC4)c(=O)[nH]3)cc21 (centres unmarked) [Compound #168, 3-(1-(1,1-dioxidothiomorpholino)-2-methylpropyl)-6-(1-ethyl-4-fluoro-1H-indazol-6-yl)pyridin-2(1H)-one]	26 nM	130 nM
CC(C)C(c1ccc(-c2ccc3cccc(F)c3c2)[nH]c1=O)n1cnnc1N (centres unmarked) [compound 160, 3-(1-(3-amino-4H-1,2,4-triazol-4-yl)-2-methylpropyl)-6-(8-fluoronaphthalen-2-yl)pyridin-2(1H)-one]	13 nM	44 nM
